Results: publication PMC10978252 (Journal of medicinal chemistry, 2024)
“Also recorded” adds a separate entry of the source.

Key:
HIV-Nef [1] = molecular target: T1, HIV-Nef (Human immunodeficiency virus type 1, UniProt P03406); format: cell-based, HIV-1; settings: for Nef inhibitory potency, in words (relative to parent or comparator) / Nef IC50: 24 h; for Nef IC50: HIV ΔGPE transduced primary CD4+ T cells, upper limit of assay 1000 nM; for restoration of MHC-I levels on infected (GFP+) cells: ΔGPE transduced 48 h then treated 24 h, compared to uninfected (GFP-) cells
T1 sequence (P03406 2-206): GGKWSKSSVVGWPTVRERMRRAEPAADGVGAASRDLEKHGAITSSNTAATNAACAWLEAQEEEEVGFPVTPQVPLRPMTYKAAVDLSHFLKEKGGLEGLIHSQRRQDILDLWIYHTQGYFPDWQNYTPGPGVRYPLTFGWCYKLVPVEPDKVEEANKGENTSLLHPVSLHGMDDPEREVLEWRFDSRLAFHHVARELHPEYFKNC

V-ATPase [2] = molecular target: V-ATPase (Homo sapiens, UniProt P27449); assay: cell-based; format: cell-based; settings: for Lysotracker IC50 / V-ATPase inhibition (Lysotracker), in words: 24 h; for Lysotracker IC50: lysosomal neutralization / V-ATPase inhibition
Sequence of V-ATPase (Homo sapiens, UniProt P27449) (P27449 whole entry, looked up): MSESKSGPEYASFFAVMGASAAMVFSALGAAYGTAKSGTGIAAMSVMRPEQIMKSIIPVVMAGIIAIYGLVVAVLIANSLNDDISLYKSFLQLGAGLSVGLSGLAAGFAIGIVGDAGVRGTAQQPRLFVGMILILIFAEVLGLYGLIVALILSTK

primary CD4+ T cells [3] = assay: 72 h viability
MHC-I HLA-A2 = format: cell-based, human; settings: ΔGPEN; treated 24 h
HIV-Nef [4] = molecular target: T1, HIV-Nef; settings: cited from earlier work; for MHC-I HLA-A2 restoration in HIV-infected primary T cells, side-by-side assays: B9 up to more than 10μM, CMA nanomolar
V-ATPase [5] = settings: cited from earlier work
primary CD4+ T cells [6] = assay: 24 h viability
Nef = settings: cited from earlier work
[7] = system: HIV-1 infected CD4+ T cells; settings: single digit micromolar concentrations; cited from earlier work
[8] = system: Nef overexpressing HEK293T cells; settings: single digit micromolar concentrations; cited from earlier work

## CO/C1=C\C(C)=C\[C@@H](C)[C@@H](O)[C@@H](C)C/C(C)=C/C=C/[C@H](OC)[C@@H]([C@@H](C)[C@@H](O)[C@H](C)[C@H]2C[C@@H](OC)[C@H](C)[C@@H](C(C)C)O2)OC1=O [compound 10]
HIV-Nef [1]
  Nef inhibitory potency, in words (relative to parent or comparator): decreased potency

## CO/C1=C\C(C)=C\[C@@H](C)C(=O)[C@@H](C)C/C(C)=C/C=C/[C@H](OC)[C@@H]([C@@H](C)[C@@H](O)[C@H](C)[C@@]2(O)C[C@@H](O)[C@H](C)[C@@H](C(C)C)O2)OC1=O [compound 20]
HIV-Nef [1]
  Nef inhibitory potency, in words (relative to parent or comparator): reduced activity at all concentrations tested
  Nef IC50: above the activity threshold
V-ATPase [2]
  Lysotracker IC50: above the activity threshold

## CO/C1=C\C(C)=C\[C@@H](C)C(=O)[C@@H](C)C/C(C)=C/C=C/[C@H](OC)[C@@H]([C@@H](C)[C@@H](O)[C@H](C)[C@@]2(O)CC(=O)[C@H](C)[C@@H](C(C)C)O2)OC1=O [compound 21]
HIV-Nef [1]
  Nef IC50: above the activity threshold
V-ATPase [2]
  Lysotracker IC50: above the activity threshold

## CO/C1=C\C(C)=C\[C@@H](C)[C@@H](O)[C@@H](C)C/C(C)=C/C=C/[C@H](OC)[C@@H]([C@@H](C)[C@@H](O)[C@H](C)[C@H]2C[C@@H](O)[C@H](C)[C@@H](C(C)C)O2)OC1=O [compound 9, 19-deoxy Baf A1]
HIV-Nef [1]
  Nef inhibitory potency, in words (relative to parent or comparator): decreased potency

## C/C=C/[C@H]1O[C@@](O)([C@@H](C)[C@H](O)[C@H](C)[C@H]2OC(=O)/C(OC)=C/C(C)=C/[C@@H](C)[C@@H](O)[C@@H](C)[C@@H](OC(C)=O)[C@H](C)C/C(C)=C/C=C/[C@@H]2OC)C[C@@H](O[C@H]2C[C@@H](OC(C)=O)[C@H](OC(N)=O)[C@@H](C)O2)[C@@H]1C [compound 31, 3’,9-diacetyl CMB]
Primary CD4+ T cells [3]
  toxicity, in words: reducing toxicity

## C/C=C/[C@H]1O[C@@](O)([C@@H](C)[C@H](O)[C@H](C)[C@H]2OC(=O)/C(OC)=C/C(C)=C/[C@@H](C)[C@@H](O)[C@@H](CC)[C@@H](OC(C)=O)[C@H](C)C/C(C)=C/C=C/[C@@H]2OC)C[C@@H](O[C@H]2C[C@@H](OC(C)=O)[C@H](OC(N)=O)[C@@H](C)O2)[C@@H]1C [compound 33, 3’,9-diacetyl CMA]
HIV-Nef [1]
  restoration of MHC-I levels on infected (GFP+) cells: restored MHC-I levels
MHC-I HLA-A2
  MHC-I surface levels in cells lacking Nef: did not substantially alter MHC-I surface levels

## CO/C1=C\C(C)=C\[C@@H](C)[C@@H](O)[C@@H](C)C/C(C)=C/C=C/[C@H](OC)[C@@H]([C@@H](C)[C@@H](O)[C@H](C)[C@H]2C=C(O)[C@H](C)[C@@H](C(C)C)O2)OC1=O [compound 11]
HIV-Nef [1]
  Nef inhibitory potency, in words (relative to parent or comparator): decreased potency

## bafilomycin D [Baf D]
HIV-Nef [4]
  Nef inhibition, in words: poor inhibitor
V-ATPase [5]
  V-ATPase inhibition, in words: poor inhibitor

## C[C@@H]1C[C@H](C)C[C@H](C)[C@@H](O)CC(=O)O[C@H]([C@@H]2CCC[C@H]2C(=O)O)C/C=C/C=C(/C#N)[C@H](O)[C@@H](C)C1 [S1, borrelidin]
Primary CD4+ T cells [6]
  toxicity at 24 h, in words: toxic at 24-hrs

## CO/C1=C\C(C)=C\[C@@H](C)[C@@H](O)[C@@H](C)C/C(C)=C/C=C/[C@H](OC)[C@@H]([C@@H](C)[C@@H](O)[C@H](C)[C@@]2(OC)C[C@@H](O)[C@H](C)[C@@H](C(C)C)O2)OC1=O [compound 8]
HIV-Nef [1]
  Nef inhibitory potency, in words (relative to parent or comparator): decreased potency

## C/C=C/[C@H]1O[C@@](O)([C@@H](C)[C@H](O)[C@H](C)[C@H]2OC(=O)/C(OC)=C/C(C)=C/[C@@H](C)[C@@H](O)[C@@H](CC)[C@@H](O)[C@H](C)C/C(C)=C/C=C/[C@@H]2OC)C[C@@H](O[C@H]2C[C@@H](O)[C@H](OC(N)=O)[C@@H](C)O2)[C@@H]1C [compound 1, concanamycin A, reference compound]
HIV-Nef [1]
  restoration of MHC-I levels on infected (GFP+) cells: restored MHC-I levels
V-ATPase [2]
  IC50: 1.7 nM
MHC-I HLA-A2
  MHC-I surface levels in cells lacking Nef: did not substantially alter MHC-I surface levels
HIV-Nef [4]
  MHC-I HLA-A2 restoration in HIV-infected primary T cells, side-by-side assays: near-fully restore
Nef
  binding between Nef and CMA: no binding

## CC[C@H](C)C(=O)O[C@H]1C[C@@H](C)C=C2C=C[C@H](C)[C@H](CC[C@@H]3C[C@@H](O)CC(=O)O3)[C@H]21 [Lovastatin]
HIV-Nef [4]
  MHC-I HLA-A2 restoration in HIV-infected primary T cells, side-by-side assays: partially restored
  concentration for partial MHC-I restoration, relative to CMA: 2,000 fold
[7]
  surface expression of MHC-1 and CD4: increases surface expression
[8]
  surface expression of SERINC5: increases surface expression

## CO/C1=C\C(C)=C\[C@@H](C)[C@@H](O)[C@@H](C)C/C(C)=C/C=C/[C@H](OC)[C@@H]([C@@H](C)[C@@H](O)[C@H](C)[C@@]2(O)C[C@@H](O[C@@H]3O[C@@H](C)[C@H](O)[C@@H](O)[C@H]3OC)[C@H](C)[C@@H](C(C)C)O2)OC1=O [compound 18, leucanicidin, reference compound]
Primary CD4+ T cells [3]
  toxicity, in words: significantly more toxic

## CCCCC(=O)O[C@@H]1C[C@](O)([C@@H](C)[C@H](O)[C@H](C)[C@H]2OC(=O)/C(OC)=C/C(C)=C/[C@@H](C)[C@@H](O)[C@@H](C)C/C(C)=C/C=C/[C@@H]2OC)O[C@H](C(C)C)[C@H]1C [compound 14]
HIV-Nef [1]
  Nef inhibitory potency, in words (relative to parent or comparator): decreased potency; also recorded: opposite effect

## C/C=C/[C@H]1O[C@@](O)([C@@H](C)[C@H](O)[C@H](C)[C@H]2OC(=O)/C(OC)=C/C(C)=C/[C@@H](C)[C@@H](O)[C@@H](C)[C@@H](O)[C@H](C)C/C(C)=C/C=C/[C@@H]2OC)C[C@@H](O[C@H]2C[C@@H](O)[C@H](OC(N)=O)[C@@H](C)O2)[C@@H]1C [compound 22, concanamycin B, reference compound]
HIV-Nef [1]; vs CMA
  decrease in Nef inhibitory potency compared to CMA (1): ~10 fold
V-ATPase [2]
  V-ATPase inhibition (Lysotracker), in words: even greater decrease in V-ATPase inhibitory potency

## C/C=C/[C@H]1O[C@@H]([C@@H](C)[C@H](O)[C@H](C)[C@H]2OC(=O)/C(OC)=C/C(C)=C/[C@@H](C)[C@@H](O)[C@@H](CC)[C@@H](O)[C@H](C)C/C(C)=C/C=C/[C@@H]2O)C[C@@H](O)[C@@H]1C [compound 39, 21-deoxy-16-hydroxy CMF]
HIV-Nef [1]; vs CMF
  reduction of Nef inhibitory activity compared to CMF (24): over 200 fold

## C/C=C/C=C/[C@H]1O[C@@](O)([C@@H](C)[C@H](O)[C@H](C)[C@H]2OC(=O)/C(OC)=C/C(C)=C/[C@@H](C)[C@@H](O)[C@@H](C)C/C(C)=C/C=C/[C@@H]2OC)C[C@@H](O[C@H]2C[C@@H](O)[C@H](O)[C@@H](C)O2)[C@@H]1C [compound 19, PC-766B, reference compound]
Primary CD4+ T cells [3]
  toxicity, in words: significantly more toxic

## C=C/C=C/C(=O)O[C@@H]1C[C@](O)([C@@H](C)[C@H](O)[C@H](C)[C@H]2OC(=O)/C(OC)=C/C(C)=C/[C@@H](C)[C@@H](O)[C@@H](C)C/C(C)=C/C=C/[C@@H]2OC)O[C@H](C(C)C)[C@H]1C [compound 16]
HIV-Nef [1]
  Nef inhibitory potency, in words (relative to parent or comparator): decreased potency; also recorded: improved potency compared to 14 or 15

## C/C=C/[C@H]1O[C@@H]([C@@H](C)[C@H](O)[C@H](C)[C@H]2OC(=O)/C(OC)=C/C(C)=C/[C@@H](C)[C@@H](O)[C@@H](CC)[C@@H](O)[C@H](C)C/C(C)=C/C=C/[C@@H]2OC)C[C@@H](O)[C@@H]1C [compound 38, 21-deoxy CMF]
HIV-Nef [1]
  Nef inhibitory potency, in words (relative to parent or comparator): no change in potency

## C=CC(C)C(OC(=O)[C@@H](C)[C@H](O)[C@H](C)[C@H]1OC(=O)/C(OC)=C/C(C)=C/[C@@H](C)[C@@H](O)[C@@H](C)C/C(C)=C/C=C/[C@@H]1OC)C(C)C (stereo partly drawn) [compound 12]
HIV-Nef [1]; vs Baf A1
  decrease in Nef potency compared to 2: 26 fold
V-ATPase [2]
  V-ATPase inhibition (Lysotracker), in words: Dramatic reductions
Primary CD4+ T cells [3]
  toxicity, in words: Dramatic reductions

## CCCCCCCCC(=O)O[C@@H]1C[C@](O)([C@@H](C)[C@H](O)[C@H](C)[C@H]2OC(=O)/C(OC)=C/C(C)=C/[C@@H](C)[C@@H](O)[C@@H](C)C/C(C)=C/C=C/[C@@H]2OC)O[C@H](C(C)C)[C@H]1C [compound 15]
HIV-Nef [1]
  Nef inhibitory potency, in words (relative to parent or comparator): decreased potency; also recorded: opposite effect
